Experiment [1] in a line: Concentration required for 50% inhibition of Amyloid beta protein production in Amyloid precursor protein (APP)-transfected Chinese hamster ovary(CHO) cells. The format is functional. Particulars: Cricetulus griseus.
Experiment [2] can be described thus: Inhibition of Amyloid beta protein production at 25 uM in Amyloid precursor protein (APP)-transfected Chinese hamster ovary(CHO) cells. Particulars: Cricetulus griseus. The experiment is classed as functional.

Some results are limits rather than exact numbers.

For orientation: IC50 means the midpoint of a concentration-inhibition curve. A low value points to greater potency in that assay. For the compound `CCC(C)[C@H](NC(=O)[C@@H](NC(=O)C(F)(F)C(=O)[C@H](C)NC(=O)[C@@H](NC(=O)OC(C)(C)C)C(C)C)C(C)C)C(=O)N(C)C` (stereo partly specified), the IC50 in experiment [1] is 25 µM.

By inhibition is commonly meant the change of the read-out against control, counted positive when it falls. Low values mean little suppression, high ones strong suppression. `CCC(C)[C@H](NC(=O)[C@@H](NC(=O)C(F)(F)C(=O)[C@H](C)NC(=O)[C@@H](NC(=O)OC(C)(C)C)C(C)C)C(C)C)C(=O)OC` (stereo partly specified) came in with a half-maximal inhibitory concentration (IC50) in experiment [1] of 15 µM. The inhibition at 25 µM in experiment [2] is ≥ 65%.

In the case of `CCOC(=O)[C@@H](NC(=O)[C@@H](NC(=O)C(F)(F)C(=O)[C@H](C)NC(=O)[C@@H](NC(=O)OC(C)(C)C)C(C)C)C(C)C)C(C)CC` (stereo partly specified), the IC50 in experiment [1] was determined as 9 µM.

Take `CCC(C)[C@H](NC(=O)[C@@H](NC(=O)C(F)(F)C(=O)[C@H](C)NC(=O)[C@@H](NC(=O)OC(C)(C)C)C(C)C)C(C)C)C(=O)NC` (stereo partly specified): in experiment [1], the half-maximal inhibitory concentration (IC50) is < 100 µM.

As for `CCC(C)[C@H](NC(=O)[C@@H](NC(=O)C(F)(F)C(=O)[C@H](CC1CCCCC1)NC(=O)[C@@H](NC(=O)OC(C)(C)C)C(C)C)C(C)C)C(=O)OCc1ccccc1` (stereo partly specified), it took 6 µM to reach half-maximal inhibition in experiment [1] (IC50).

For `CCC(C)[C@H](NC(=O)[C@@H](NC(=O)C(F)(F)C(=O)[C@H](C)NC(=O)[C@@H](NC(=O)OC(C)(C)C)C(C)C)C(C)C)C(=O)OCc1ccccc1` (stereo partly specified), in experiment [1], the IC50 was found to be 4 µM.

With `CCC(C)[C@H](NC(=O)[C@@H](NC(=O)C(F)(F)C(=O)[C@@H](NC(=O)[C@@H](NC(=O)OC(C)(C)C)C(C)C)C(C)C)C(C)C)C(=O)OC` (stereo partly specified), in experiment [1], the IC50 stood at 9 µM.

`CCC(C)[C@H](NC(=O)[C@@H](NC(=O)C(F)(F)C(=O)[C@@H](NC(=O)[C@@H](NC(=O)OC(C)(C)C)C(C)C)c1ccccc1)C(C)C)C(=O)OC` (stereo partly specified) showed an IC50 in experiment [1] of 9 µM.

In experiment [1], `CCC(C)[C@H](NC(=O)[C@@H](NC(=O)C(F)(F)C(=O)[C@@H](NC(=O)[C@@H](NC(=O)OC(C)(C)C)C(C)C)C(C)CC)C(C)C)C(=O)OC` (stereo partly specified) yielded an IC50 of 6 µM.

`CCC(C)[C@H](NC(=O)[C@@H](NC(=O)C(F)(F)C(=O)[C@H](CC1CCCCC1)NC(=O)[C@@H](NC(=O)OC(C)(C)C)C(C)C)C(C)C)C(=O)OC` (stereo partly specified): the midpoint of inhibition in experiment [1], the IC50, lay at 4 µM.

The values above are taken from ChEMBL document CHEMBL1133642, “Difluoro ketone peptidomimetics suggest a large S1 pocket for Alzheimer's gamma-secretase: implications for inhibitor design” (J Med Chem, 2000).
